The subject of one assay is MCF7. The experiment in a line: Cytotoxicity against human MCF7 cells assessed as cell viability after 48 hrs by MTT assay. It is filed as functional, cell-based. To be noted: MCF7, 48 h. In general terms: Tetrazolium assays rely on reduction of a dye to a coloured formazan, in cell work by metabolically active cells.
Another assay concerns HT-29. Nature of the assay: Cytotoxicity against human HT-29 cells assessed as cell viability after 48 hrs by MTT assay. The assay is classed as functional, cell-based. The note with it: HT-29, 48 h.

These results are taken from ChEMBL document CHEMBL1773013, “Malyngamide 3 and cocosamides A and B from the marine cyanobacterium Lyngbya majuscula from Cocos Lagoon, Guam” (J Nat Prod, 2011).

With `CCCCCCC[C@@H](C/C=C/CCC(=O)N(C)C/C(=C\Cl)CC(=O)CC(=O)NC[C@H](O)CC(=O)OC)OC` [MALYNGAMIDE 3], the IC50 in the assay on MCF7 is 29 µM; with HT-29, 48 µM.
For the compound `C#CCCC[C@@H]1OC(=O)CNC(=O)[C@H](Cc2ccccc2)N(C)C(=O)[C@@H]2CCCN2C(=O)[C@H](Cc2ccccc2)N(C)C(=O)[C@H](C(C)C)NC(=O)C1(C)C` [COCOSAMIDE B], the values for the IC50 with MCF7 and in the assay with HT-29 were 39 µM and 11 µM, respectively.
For `CC(=O)O[C@H]1C(=O)[C@@]2(C)[C@H]([C@H](OC(=O)c3ccccc3)[C@]3(O)C[C@H](OC(=O)[C@H](O)[C@@H](NC(=O)c4ccccc4)c4ccccc4)C(C)=C1C3(C)C)[C@]1(OC(C)=O)CO[C@@H]1C[C@@H]2O` [PACLITAXEL], the IC50 in the assay with MCF7 was found to be 0.006 µM; in the assay with HT-29, 0.007 µM.
Consider `C=CCCC[C@@H]1OC(=O)CNC(=O)[C@H](Cc2ccccc2)N(C)C(=O)[C@@H]2CCCN2C(=O)[C@H](Cc2ccccc2)N(C)C(=O)[C@H](C(C)C)NC(=O)C1(C)C` [COCOSAMIDE A], for which the values for the IC50 with MCF7 and in the assay on HT-29 were 30 µM and 24 µM, respectively.

As usually defined, the IC50 is the concentration that inhibits the measured activity by half.
